Test [1] has as its target T1, rat olfactory CNGA2 channel (homomeric) (Rattus norvegicus, UniProt Q00195, E342K).
T1 sequence (Q00195 1-664 E342K): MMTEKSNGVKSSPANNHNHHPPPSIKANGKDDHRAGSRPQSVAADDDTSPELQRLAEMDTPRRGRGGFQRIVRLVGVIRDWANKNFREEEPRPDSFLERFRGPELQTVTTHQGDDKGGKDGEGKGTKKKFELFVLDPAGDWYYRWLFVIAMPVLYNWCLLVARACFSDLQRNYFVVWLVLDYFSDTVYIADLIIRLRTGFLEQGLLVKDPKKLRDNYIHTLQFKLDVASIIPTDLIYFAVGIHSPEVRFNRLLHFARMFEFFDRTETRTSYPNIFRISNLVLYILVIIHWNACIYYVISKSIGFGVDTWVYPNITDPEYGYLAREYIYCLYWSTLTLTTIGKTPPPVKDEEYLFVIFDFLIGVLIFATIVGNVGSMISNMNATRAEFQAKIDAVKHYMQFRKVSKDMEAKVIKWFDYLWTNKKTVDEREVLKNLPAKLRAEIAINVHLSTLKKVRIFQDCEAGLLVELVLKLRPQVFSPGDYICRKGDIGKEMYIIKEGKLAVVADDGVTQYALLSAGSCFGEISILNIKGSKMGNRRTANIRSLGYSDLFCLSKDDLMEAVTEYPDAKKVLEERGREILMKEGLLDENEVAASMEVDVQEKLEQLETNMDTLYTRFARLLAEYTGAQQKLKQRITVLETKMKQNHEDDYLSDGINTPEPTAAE
Description: inside-out patch clamp, cGMP-activated current, Hill fit. The format is cell-based.

In test [2] the target is T2, rat olfactory CNGA2 channel (homomeric) (Rattus norvegicus, UniProt Q00195).
T2 sequence (Q00195 1-664): T1 sequence (Q00195 1-664 E342K) with K342E
The test can be described thus: inside-out patch clamp, cGMP-activated current. The format is biochemical. Particulars: agonist; 5 mM cGMP; 145 mM NaCl, pH 7.4, 21 °C.

Here are results for 1 compound from publication PMC2151509 (The Journal of General Physiology, 2006).

Structures are written as SMILES. Where a chain is given by its changes, count along the chain named.

`Nc1nc2c(ncn2[C@@H]2O[C@@H]3COP(=O)(O)O[C@H]3[C@H]2O)c(=O)[nH]1` [cGMP] displayed a half-maximal effective concentration (EC50) in test [1] of 8.6 ± 1.2 µM. The “inside-out patch clamp, cGMP-activated current” value in test [2] is listed as “Macroscopic cGMP-activated currents in different NaCl dilutions in one inside-out patch with WT CNG channels”.
